According to US9862746B2, “Compositions and methods relating to hindering DOT1L recruitment by MLL-fusion proteins” (The Regents of the University of Michigan, priority 2013, dated 2018):
Where a SMILES comes first, the peptide text is derived from it.

T1: AF9 (Homo sapiens, UniProt P42568)
T1 sequence (P42568 497-568): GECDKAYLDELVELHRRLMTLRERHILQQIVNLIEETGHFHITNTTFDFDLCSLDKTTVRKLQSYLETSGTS

T2: ENL (Homo sapiens, UniProt Q03111)
T2 construct: against AF9(497-568) and ENL (489-559) proteins running different tested concentrations over CM5 chip; MBP (pMSCG9-LIC vector); made in house; host or cells: Escherichia coli BL21 (DE3)
T2 sequence (Q03111 489-559): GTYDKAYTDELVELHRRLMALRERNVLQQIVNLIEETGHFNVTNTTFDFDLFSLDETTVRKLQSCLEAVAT

T3: ENL (489-559) (Homo sapiens, UniProt Q03111)
T3 construct: ENL protein (residues 489-559); MBP (pMSCG9-LIC vector); made in house; host or cells: Escherichia coli BL21 (DE3)
T3 sequence (Q03111 489-559): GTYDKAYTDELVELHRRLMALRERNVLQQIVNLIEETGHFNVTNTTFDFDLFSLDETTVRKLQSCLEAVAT

T4: AF9 (497-568) (Homo sapiens, UniProt P42568)
T4 construct: human AF9 (residues 497-568); GB1 (pGB1-LIC vector); made in house; host or cells: Escherichia coli BL21 (DE3)
T4 sequence (P42568 497-568): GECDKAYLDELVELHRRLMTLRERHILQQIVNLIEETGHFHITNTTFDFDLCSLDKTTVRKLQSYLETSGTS


How the values were obtained:
[1] = target: T1, AF9; experiment: SPR competitive binding assay of small molecules, AF9-DOT1L; set-up: against AF9(497-568) and ENL (489-559) proteins running different tested concentrations over CM5 chip; GB1 (pGB1-LIC vector); made in house; host or cells: Escherichia coli BL21 (DE3)
Excerpt: Several secondary assays have already been developed to support hit confirmation and the hit-to-probe optimization process. The established and optimized SPR-based competitive assay utilizing DOT1L protein (826-1095) immobilized on the CM5 sensor chip was used as a secondary counter screen assay to validate binding of compounds to AF9. […] Both assays gave similar IC50 values.
(§1) To further validate the binding of the confirmed compounds and identify potential promiscuous inhibitors, several secondary assays have been developed to support hit confirmation and the hit-to-probe optimization process. In order to determine that the compounds bind effectively to the target and disrupt protein-protein interaction, a SPR competitive binding assay was used. This assay uses a platform that differs from the FP-based assay where DOT1L recombinant protein (residues […]) is immobilized on a CM5 chip, allowing for testing of the inhibitors for their ability to disrupt AF9-DOT1L protein-protein interactions.

[2] = target: T2, ENL; experiment: SPR competitive binding assay of small molecules, ENL; conditions: SPR competitive based assay; read-out: ENL IC50 ± SD
Excerpt: as §1
This class of compounds was also tested for their binding against ENL protein, which is highly homologous with AF9.

[3] = target: T2, ENL; experiment: Solution competitive SPR assay of peptides, ENL-DOT1L interaction; assay type: binding; conditions: CM5 chip with immobilized DOT1L protein, read-out: IC50 ± SD ENL
Method: (§2) Solution competitive SPR based assay was performed to determine the IC50 values of DOT1L peptides. […] Response units (RU) were measured at 15 seconds in the dissociation phase and the specific binding was calculated by subtracting the control surface (Fcl) signal from the surfaces with immobilized Mocr-DOT1L. IC50 values were determined by non-linear least squares analysis using Graph Pad Prism 5.0 software.

[4] = target: T1, AF9; experiment: Solution competitive SPR assay of peptides, AF9-DOT1L interaction; assay type: binding; set-up: against AF9(497-568) and ENL (489-559) proteins running different tested concentrations over CM5 chip; GB1 (pGB1-LIC vector); made in house; host or cells: Escherichia coli BL21 (DE3); conditions: CM5 chip with immobilized DOT1L protein, read-out: IC50 ± SD AF9
Method: as §2

[5] = target: T1, AF9; experiment: Optimized competitive FP binding assay (N-Flu-DOT1L / AF9); set-up: the recombinant GB1-AF9 protein (residues 497-568); made in house; host or cells: Escherichia coli BL21 (DE3)
[6] = target: T3, ENL (489-559); experiment: SPR binding of ENL to immobilized DOT1L constructs; conditions: DOT1L construct immobilized on CM5 sensor chip, read-out: ENL (489-559) Kd ± SD
Excerpt: (§3) AF9 and ENL are two of the most common MLL fusion proteins (see, e.g., Daser A, Rabbitts T H (2004) Genes & development 18: 965-974) and belong to the YEATS protein family (see, e.g., Schulze J M, et al., (2009) Biochem Cell Biol 87: 65-75). Both of these two proteins consist of N-terminal YEATS domain and a C-terminal hydrophobic domain (see, e.g., Zhang W, et al., (2007) J Clin Invest 117: 773-783). AF9 and ENL shared high homology in the C-terminal domain and it had been shown that through this domain AF9/ENL are involved in the PPI which is crucial for MLL leukemia transformation (see, e.g., Dobson C L, et al., (1999) Embo J 18: 3564-3574; Mueller D, et al., (2007) Blood 110: 4445-4454; Yokoyama A, et al., (2010) Cancer cell 17: 198-212). The interaction of AF9 or ENL with DOT1L has been reported previously by co-immunoprecipitation and yeast 2-hybrid studies (see, e.g., Biswas D, et al., (2011) PNAS 108: 15751-15756; Yokoyama A, et al., (2010) Cancer cell 17: 198-212; Zhang W, et al., (2006) J Biol Chem 281: 18059-18068; Zhang W, et al., (2007) J Clin Invest 117: 773-783; Mueller D, et al., (2007) Blood 110: 4445-4454). However, there is a lack of detailed biochemical and biophysical characterization of this interaction. To understand the molecular basis of DOT1L interaction with MLL-fusion proteins, these PPIs were analyzed using surface plasma resonance (SPR). An SPR assay was developed to quantify the binding affinity between full length DOT1L protein and MLL-fusion proteins. For that purpose, the flag-tagged full length DOT1L protein was transiently transfected in HEK 293 cells and after 48 hours transfection the flag-tagged DOT1L protein was captured from the HEK 293 whole cell lysate on an anti-flag antibody-coated biosensor chip (FIG. 1B and FIG. 14). The recombinant C-terminal domain from human AF9 (residues 497-568) and the corresponding segment from ENL protein (residues 489-559) were cloned, expressed and purified for the biochemical binding studies (FIG. 1A). […] For the first time these studies quantitatively determined the binding affinity of DOT1L to AF9 and ENL and confirmed that DOT1L directly interacts with AF9 and ENL and has about six folds higher affinity against AF9 in comparison with ENL.
(§4) Surface Plasmon Resonance (SPR) binding studies—All SPR based experiments were performed on a BIAcore 2000 (BIAcore, GE Healthcare) instrument. Different tested DOT1L recombinant proteins were immobilized on a CM5 sensor chip by standard EDC/NHS coupling chemistry followed by ethanolamine deactivation of the surfaces. For immobilization of full length Flag-DOT1L protein, anti-Flag antibody (Sigma, Anti-FLAG M2) was immobilized on CM5 chip by the same amine coupling chemistry. HEK293 whole cells lysate with overexpressed Flag-DOT1L at 2.4 μg/l total protein concentration was injected over the Flag antibody surface, followed by injecting of AF9 and ENL in different concentrations. […] The Fcl surface was used as a control surface and was treated in the same manner as the active surfaces but in the absence of immobilized protein. Binding parameters, kon, koff and Kd were calculated by simultaneous non-linear regression using BIAEvaluation software.

[7] = target: T4, AF9 (497-568); experiment: SPR binding of AF9 to immobilized DOT1L constructs; conditions: DOT1L construct immobilized on CM5 sensor chip, read-out: AF9 (497-568) Kd ± SD
Excerpt: as §3, §4

[8] = SPR competitive, read-out: IC50, inhibition of AF9-DOT1L interaction
[9] = SPR competitive based assay, read-out: AF9 IC50 ± SD

| Molecule | Kd [6] | Kd [7] | further results |
| --- | --- | --- | --- |
| O=c1c(O)cccc2cc(O)c(O)c(O)c12 [CCG-38505] | – | – | IC50 [1, 8]: 5720 nM |
| O=C(c1cc(O)c(O)c(O)c1)c1ccc(O)c(O)c1O [CCG-208095] | – | – | IC50 [1, 8]: 6270 nM |
| Cc1ccc(S(=O)(=O)N2c3ccccc3NC3=C(C(=O)CC(C)(C)C3)C2c2ccco2)cc1 (stereo not shown) [Compound 41] | – | – | IC50 [2]: 33200 ± 8700 nM; IC50 [1, 9]: 46400 ± 12400 nM |
| CC1(C)CC(=O)C2=C(C1)Nc1ccccc1N(S(C)(=O)=O)C2c1cccs1 (stereo not shown) [Compound 51] | – | – | IC50 [2]: > 200000 nM; IC50 [1, 9]: > 200000 nM; IC50 [1, 8]: > 200000 nM |
| Cc1ccc(C)c(S(=O)(=O)N2c3ccccc3NC3=C(C(=O)CCC3)C2c2cccs2)c1 (stereo not shown) [Compound 52] | – | – | IC50 [2]: 25100 ± 2500 nM; IC50 [1, 9]: 43100 ± 800 nM |
| CC[C@H](C)[C@H](NC(=O)[C@H](CO)NC(=O)[C@H](C)NC(=O)[C@@H]1CCCN1C(=O)[C@H](CC(C)C)NC(C)=O)C(=O)N1CCC[C@H]1C(=O)N[C@@H](CC(C)C)C(=O)N[C@@H](CO)C(=O)N[C@H](C(=O)N[C@H](C(N)=O)C(C)C)[C@@H](C)O [Compound I867A] (Ac-LPASIPLSTV-NH2) | – | – | IC50 [3]: > 200000 nM |
| CC[C@H](C)[C@H](NC(=O)[C@@H]1CCCN1C(=O)[C@H](CC(C)C)NC(C)=O)C(=O)N[C@@H](CO)C(=O)N[C@@H](C)C(=O)N1CCC[C@H]1C(=O)N[C@@H](CC(C)C)C(=O)N[C@@H](CO)C(=O)N[C@H](C(=O)N[C@H](C(N)=O)C(C)C)[C@@H](C)O [Compound I869A] (Ac-LPISAPLSTV-NH2) | – | – | IC50 [4]: > 200000 nM; Ki [5]: > 100000 nM; IC50 [3]: > 200000 nM |
| CC[C@H](C)[C@H](NC(=O)[C@@H]1CCCN1C(=O)[C@H](CC(C)C)NC(C)=O)C(=O)N[C@@H](CO)C(=O)N[C@H](C(=O)N1CCC[C@H]1C(=O)N[C@@H](CC(C)C)C(=O)N[C@@H](CO)C(=O)N[C@@H](C)C(=O)N[C@H](C(N)=O)C(C)C)[C@@H](C)CC [Compound T873A] (Ac-LPISIPLSAV-NH2) | – | – | Ki [5]: 203 nM |
| DOT1L (1-1537): Flag-tagged full length human DOT1L protein | 206 ± 80 nM | 33 ± 4 nM | – |
| DOT1L (826-1095): recombinant DOT1L construct (protein) SPQDPRPLSPGALQLAGEKSSEKGLRERAYGSSGELITSLPISIPLSTVQPNKLPVSIPLASVVLPSRAERARSTPSPVLQPRDPSSTLEKQIGANAHGAGSRSLALAPAGFSYAGSVAISGALAGSPASLTPGAEPATLDESSSSGSLFATVGSRSSTPQHPLLLAQPRNSLPASPAHQLSSSPRLGGAAQGPLPEASKGDLPSDSGFSDPESEAKRRIVFTITTGAGSAKQSPSSKHSPLTASARGDCVPSHGQDSRRRGRRKRASAG | 238 nM | 111 nM | – |
| DOT1L (826-937): recombinant truncated DOT1L construct (protein) SPQDPRPLSPGALQLAGEKSSEKGLRERAYGSSGELITSLPISIPLSTVQPNKLPVSIPLASVVLPSRAERARSTPSPVLQPRDPSSTLEKQIGANAHGAGSRSLALAPAGF | 81 ± 6 nM | 78 ± 15 nM | – |
| DOT1L (854-925): recombinant truncated DOT1L construct, 72 amino acids (protein) AYGSSGELITSLPISIPLSTVQPNKLPVSIPLASVVLPSRAERARSTPSPVLQPRDPSSTLEKQIGANAHGA | 90 nM | 42 nM | – |
| DOT1L (925-1095): recombinant truncated DOT1L construct (protein) AGSRSLALAPAGFSYAGSVAISGALAGSPASLTPGAEPATLDESSSSGSLFATVGSRSSTPQHPLLLAQPRNSLPASPAHQLSSSPRLGGAAQGPLPEASKGDLPSDSGFSDPESEAKRRIVFTITTGAGSAKQSPSSKHSPLTASARGDCVPSHGQDSRRRGRRKRASAG | 6220 nM | 1820 nM | – |
| DOT1L (854-1095): recombinant truncated DOT1L construct (protein) AYGSSGELITSLPISIPLSTVQPNKLPVSIPLASVVLPSRAERARSTPSPVLQPRDPSSTLEKQIGANAHGAGSRSLALAPAGFSYAGSVAISGALAGSPASLTPGAEPATLDESSSSGSLFATVGSRSSTPQHPLLLAQPRNSLPASPAHQLSSSPRLGGAAQGPLPEASKGDLPSDSGFSDPESEAKRRIVFTITTGAGSAKQSPSSKHSPLTASARGDCVPSHGQDSRRRGRRKRASAG | 148 ± 14 nM | 135 ± 4 nM | – |
| DOT1L (826-958): recombinant truncated DOT1L construct (protein) SPQDPRPLSPGALQLAGEKSSEKGLRERAYGSSGELITSLPISIPLSTVQPNKLPVSIPLASVVLPSRAERARSTPSPVLQPRDPSSTLEKQIGANAHGAGSRSLALAPAGFSYAGSVAISGALAGSPASLTP | 122 ± 16 nM | 92 ± 8 nM | – |
